Laboratory results taken from patent US20250206718A1, “NITROGEN-CONTAINING HETEROCYCLIC DERIVATIVE INHIBITOR, PREPARATION METHOD THEREFOR AND USE THEREOF” (SHANGHAI HANSOH BIOMEDICAL CO., LTD., priority 2022, published 2025).

Tested on: not listed separately
Experiment: Rat pharmacokinetic evaluation test
Assay type: in vivo
Details: Sprague-Dawley (SD), po, SD rats, male, p.o. 5 mg/kg, plasma
Procedure: SD rats were used as test animals to study the pharmacokinetic behavior of the compounds of the present invention in the rat body (plasma) after oral administration at a dose of 5 mg/kg.
2.2 Experimental Animals: 3 SD Rats/Group, Male, from Shanghai Jiesijie Experimental Animal Co., Ltd., Animal Production License Number (SCXK (Shanghai) 2013-0006 No. 311620400001794).
• Oral administration drug preparation: 20% solutol HS15 in 0.5% MC (methylcellulose)
20 g of a Solutol HS15 solid and 0.5 g of a MC solid powder were weighed and dissolved in 80 mL of purified water, and the mixture was vortexed, mixed until uniform, and subjected to ultrasound treatment to obtain a clear solution of 20% solutol HS15 in 0.5% MC.
The example compound was weighed into a 20 mL glass bottle, the solution was added thereto and the mixture was subjected to ultrasound treatment for 10 minutes to obtain a clear solution with a concentration of 0.5 mg/mL.
3 male SD rats were administered p.o. respectively after the 3 male SD rats were fasted overnight; the p.o. dose was 5 mg/kg and the administration volume was 10 mL/kg.
Blood collection: Before and after administration to rats, 0.2 mL of blood was collected from the jugular vein at 0.25, 0.5, 1, 2, 4, 6, 8 and 24 h, and placed in an EDTA-K2 anticoagulation tube, which was centrifuged at 6000 rpm at 4° C. for 6 min to separate plasma which was stored at −80° C.; the rats were fed 4 h after administration.
1) 160 μL of acetonitrile was added to 40 μL of plasma sample for precipitation, mixed and centrifuged at 3500×g for 5 to 20 min.
2) the treated supernatant solution was taken and subjected to LC/MS/MS to analyze the concentrations of the test compounds. LC/MS/MS analysis instrument: AB Sciex API 4000 Qtrap.
• Liquid phase conditions: Shimadzu LC-20AD pump • Chromatographic column: Agilent ZORBAX XDB-C18 (50×2.1 mm, 3.5 μm) mobile phase: liquid A is 0.1% aqueous formic acid solution, liquid B is acetonitrile • Flow rate: 0.4 mL/min • Elution time: 0-4.0 min, the eluent is as follows:
The main pharmacokinetic parameters were calculated using WinNonlin 6.1.

Structure (SMILES)	AUC(0-t)	Cmax	half-life
[2H]C([2H])([2H])c1nn(C)cc1-c1nccc(Nc2cc3c(C(C)C)ccc(N4C[C@H](CS(C)(=O)=O)[C@H]4C)c3cn2)n1 [Example 3, 5-isopropyl-8-((2R,3S)-2-methyl-3-((methanesulfonyl)methyl)azetidin-1-yl)-N-(2-(1-methyl-3-(methyl-d3)-1H-pyrazol-4-yl)pyrimidin-4-yl)isoquinolin-3-amine]	2380 ng·h/mL	458 ng/mL	4.1 h

Target: Ba/F3 EGFR Del19/C797S cells (Homo sapiens, UniProt P00533, C797S, cells depend on it, form not given)
Experiment: Cell proliferation inhibition (Cell Titer-Glo), Ba/F3 EGFR Del19/C797S
Assay type: cell-based, mouse
Details: 72 hours, CellTiter-Glo, read-out: Ba/F3 EGFR Del19/C797S IC50
Description: (§1) Experimental objective: The objective of this test example is to test the inhibitory activity of compounds on the proliferation of different EGFR C797S drug-resistant mutant cell lines Ba/F3 EGFR Del19/T790M/C797S, Ba/F3 EGFR L858R/T790M/C797S, and Ba/F3 EGFR Del19/C797S.
(§2) • Ba/F3 EGFR Del19/T790M/C797S cells were purchased from KYinno Biotechnology Co., Ltd.; • Ba/F3 EGFR Del19/C797S cells were purchased from CoBioer Biosciences Co., Ltd.; • Ba/F3 EGFR L858R/T790M/C797S cells were purchased from CoBioer Biosciences Co., Ltd.; • Cell Titer-Glo was purchased from Promega, with a catalog number of G7573; • RPMI 1640 was purchased from Gibco, with a catalog number of 22400089; • FBS was purchased from Gibco, with a catalog number of 10091148; • cell culture plates were purchased from Corning, with a catalog number of 3610.
(§3) The inhibitory activity of the compound on the proliferation of different EGFR C797S drug-resistant mutant cell lines was detected using the Cell Titer-Glo method. The different cell lines were cultured in RPMI 1640 complete culture medium containing 10% FBS under conditions of 37° C. and 5% CO2, the cells were collected by centrifugation when growing to a certain density, and adjusted to appropriate cell density after counting, the cells were spread on a white 96-well plate at 90 μL/well, and cultured in a 37° C., 5% CO2 incubator overnight, prepared compound solutions of different concentrations were added at 10 μL/well, corresponding solvent controls were set, and all wells were cultured in a 37° C., 5% CO2 incubator for 72 hours, 50 μL of CellTiter-Glo solution was added to each well, shook and mixed evenly, and incubated in the dark for 10 minutes, and a BioTek Synergy H1 microplate reader was used for reading.
(§4) The luminescence signal value was used to calculate the inhibition rate. Graphpad Prism software was used to fit the concentration and inhibition rate to a nonlinear regression curve, so as to obtain the IC50 value, as shown in the Table below for details.

Sequence of Ba/F3 EGFR Del19/C797S cells (P00533 with tags, fused parts or gaps DEL746-750/C797S, form open): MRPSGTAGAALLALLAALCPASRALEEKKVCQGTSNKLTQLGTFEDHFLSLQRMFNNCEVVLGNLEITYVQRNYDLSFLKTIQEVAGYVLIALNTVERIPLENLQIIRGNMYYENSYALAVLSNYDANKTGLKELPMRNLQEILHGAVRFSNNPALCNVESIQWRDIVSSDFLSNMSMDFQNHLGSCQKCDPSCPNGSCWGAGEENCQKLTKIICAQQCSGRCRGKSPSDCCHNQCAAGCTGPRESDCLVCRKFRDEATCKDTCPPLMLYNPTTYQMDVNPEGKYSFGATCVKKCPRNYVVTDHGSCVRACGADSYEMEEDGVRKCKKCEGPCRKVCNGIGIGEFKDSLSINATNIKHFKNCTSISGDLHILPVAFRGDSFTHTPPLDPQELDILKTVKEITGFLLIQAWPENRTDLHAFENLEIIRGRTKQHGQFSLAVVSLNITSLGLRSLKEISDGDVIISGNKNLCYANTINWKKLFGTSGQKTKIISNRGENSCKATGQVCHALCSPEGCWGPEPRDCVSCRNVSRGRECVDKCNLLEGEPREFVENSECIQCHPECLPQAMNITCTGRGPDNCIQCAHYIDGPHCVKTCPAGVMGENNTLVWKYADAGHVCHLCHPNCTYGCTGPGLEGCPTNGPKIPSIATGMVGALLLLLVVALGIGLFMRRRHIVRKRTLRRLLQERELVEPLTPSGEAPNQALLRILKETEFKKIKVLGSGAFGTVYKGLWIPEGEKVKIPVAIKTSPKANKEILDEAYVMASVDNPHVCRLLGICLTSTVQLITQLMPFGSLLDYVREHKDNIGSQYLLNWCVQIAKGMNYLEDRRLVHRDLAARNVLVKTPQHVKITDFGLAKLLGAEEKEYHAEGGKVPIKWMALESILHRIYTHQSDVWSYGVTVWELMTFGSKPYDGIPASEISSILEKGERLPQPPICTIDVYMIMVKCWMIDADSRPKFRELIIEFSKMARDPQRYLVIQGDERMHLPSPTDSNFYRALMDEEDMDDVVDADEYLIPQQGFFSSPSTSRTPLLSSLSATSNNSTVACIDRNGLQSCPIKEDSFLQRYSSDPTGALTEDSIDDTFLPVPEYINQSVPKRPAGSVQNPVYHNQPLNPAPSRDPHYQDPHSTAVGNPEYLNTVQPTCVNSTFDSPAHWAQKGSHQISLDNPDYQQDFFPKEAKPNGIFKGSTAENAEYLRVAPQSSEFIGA

Structure (SMILES)	GI50
[2H]C([2H])([2H])n1cc(-c2nccc(Nc3cc4c(C(C)C)ccc(N5C[C@H](CS(C)(=O)=O)[C@H]5C)c4cn3)n2)c(C)n1 [Example 2, 5-isopropyl-N-(2-(3-methyl-1-(methyl-d3)-1H-pyrazol-4-yl)pyrimidin-4-yl)-8-((2R,3S)-2-methyl-3-((methylsulfonyl)methyl)azetidin-1-yl)isoquinolin-3-amine]	13 nM
[2H]C([2H])([2H])c1nn(C)cc1-c1nccc(Nc2cc3c(C(C)C)ccc(N4C[C@H](CS(C)(=O)=O)[C@H]4C)c3cn2)n1 [Example 3, 5-isopropyl-8-((2R,3S)-2-methyl-3-((methanesulfonyl)methyl)azetidin-1-yl)-N-(2-(1-methyl-3-(methyl-d3)-1H-pyrazol-4-yl)pyrimidin-4-yl)isoquinolin-3-amine]	16 nM
[2H]C([2H])([2H])c1nn(C([2H])([2H])[2H])cc1-c1nccc(Nc2cc3c(C(C)C)ccc(N4C[C@H](CS(C)(=O)=O)[C@H]4C)c3cn2)n1 [Example 4, N-(2-(1,3-bis(methyl-d3)-1H-pyrazol-4-yl)pyrimidin-4-yl)-5-isopropyl-8-((2R,3S)-2-methyl-3-((methylsulfonyl)methyl)azabut-1-yl)isoquinolin-3-amine]	20 nM
CC(C)c1ccc(N2C[C@H](CS(C)(=O)=O)[C@H]2C)c2cnc(Nc3ccnc(-c4cn(C5CC6CN(C)CC6C5)nc4Cl)n3)cc12 (stereo partly drawn) [Example 150, N-(2-(3-chloro-1-(2-methyloctahydrocyclopentadieno[c]pyrrol-5-yl)-1H-pyrazol-4-yl)pyrimidin-4-yl)-5-isopropyl-8-((2R,3S)-2-methyl-3-((methanesulfonyl)methyl)azetidin-1-yl)isoquinolin-3-amine]	70 nM
CC(C)c1ccc(N2C[C@H](CS(C)(=O)=O)[C@H]2C)c2cnc(Nc3ccnc(-c4cn(C5CCN(C)CC5)nc4Cl)n3)cc12 [Example 158, N-(2-(3-chloro-1-(1-methylpiperidin-4-yl)-1H-pyrazol-4-yl)pyrimidin-4-yl)-5-isopropyl-8-((2R,3S)-2-methyl-3-((methanesulfonyl)methyl)azetidin-1-yl)isoquinolin-3-amine]	50 nM
CC(C)c1ccc(N2C[C@H](CS(C)(=O)=O)[C@H]2C)c2cnc(Nc3ccnc(-c4cn(CC5CCO5)nc4Cl)n3)cc12 (stereo partly drawn) [Example 165, N-(2-(3-chloro-1-(oxetan-2-ylmethyl)-1H-pyrazol-4-yl)pyrimidin-4-yl)-5-isopropyl-8-((2R,3S)-2-methyl-3-((methanesulfonyl)methyl)azetidin-1-yl)isoquinolin-3-amine]	22 nM
Cc1nn(C)cc1-c1nccc(Nc2cc3c(C(C)C)ccc(N4CC(CS(C)(=O)=NC#N)C4)c3cn2)n1 (stereo not drawn) [Example 167, N-(((1-(3-((2-(1,3-dimethyl-1H-pyrazol-4-yl)pyrimidin-4-yl)amino)-5-isopropylisoquinolin-8-yl)azetidin-3-yl)methyl)(methyl)(carbonyl)-16-sulfanylidene)cyanamide]	74 nM
CC(C)c1c(N)cc(N2C[C@H](CS(C)(=O)=O)[C@H]2C)c2cnc(Nc3ccnc(-c4cn(C)nc4Cl)n3)cc12 [Example 169, N3-(2-(3-chloro-1-methyl-1H-pyrazol-4-yl)pyrimidin-4-yl)-5-isopropyl-8-((2R,3S)-2-methyl-3-((methanesulfonyl)methyl)azetidin-1-yl)isoquinoline-3,6-diamine]	52 nM
CC(C)c1c(F)cc(N2CC(NS(C)(=O)=O)C2)c2cnc(Nc3ccnc(-c4cn(C)nc4Cl)n3)cc12 [Example 178, N-(1-(3-((2-(3-chloro-1-methyl-1H-pyrazol-4-yl)pyrimidin-4-yl)amino)-6-fluoro-5-isopropylisoquinolin-8-yl)azetidin-3-yl)methanesulfonamide]	19 nM
CC1CC(Cn2cc(-c3nccc(Nc4cc5c(C(C)C)ccc(N6C[C@H](CS(C)(=O)=O)[C@H]6C)c5cn4)n3)c(Cl)n2)O1 (stereo partly drawn) [Example 188, N-(2-(3-chloro-1-((4-methyloxetan-2-yl)methyl)-1H-pyrazol-4-yl)pyrimidin-4-yl)-5-isopropyl-8-((2R,3S)-2-methyl-3-((methanesulfonyl)methyl)azetidin-1-yl)isoquinolin-3-amine]	65 nM

The next lines start with the values.

GI50	Structure (SMILES)
41 nM	CC(C)c1ccc(N2C[C@H](CS(C)(=O)=O)[C@H]2C)c2cnc(Nc3ccnc(-c4cn(C5CC(C#N)C5)nc4Cl)n3)cc12 (stereo partly drawn) [Example 151A, 3-(3-chloro-4-(4-((5-isopropyl-8-((2R,3S)-2-methyl-3-((methanesulfonyl)methyl)azetidin-1-yl)isoquinolin-3-yl)amino)pyrimidin-2-yl)-1H-pyrazol-1-yl)cyclobutane-1-carbonitrile]
22 nM	CC(C)c1ccc(N2C[C@H](CS(C)(=O)=O)[C@H]2C)c2cnc(Nc3ccnc(-c4cn(C5CC(O)C5)nc4Cl)n3)cc12 (stereo partly drawn) [Example 154A, 3-(3-chloro-4-(4-((5-isopropyl-8-((2R,3S)-2-methyl-3-((methanesulfonyl)methyl)azetidin-1-yl)isoquinolin-3-yl)amino)pyrimidin-2-yl)-1H-pyrazol-1-yl)cyclobutan-1-ol]
42 nM	CC(C)c1ccc(N2C[C@H](CS(C)(=O)=O)[C@H]2C)c2cnc(Nc3ccnc(-c4cn(C5CC(=O)C5)nc4Cl)n3)cc12 [Example 156, 3-(3-chloro-4-(4-((5-isopropyl-8-((2R,3S)-2-methyl-3-((methanesulfonyl)methyl)azetidin-1-yl)isoquinolin-3-yl)amino)pyrimidin-2-yl)-1H-pyrazol-1-yl)cyclobutan-1-one]
60 nM	CC(C)c1ccc(N2C[C@H](CS(C)(=O)=O)[C@H]2C)c2cnc(Nc3ccnc(-c4c[nH]nc4Cl)n3)cc12 [Example 170, N-(2-(3-chloro-1H-pyrazol-4-yl)pyrimidin-4-yl)-5-isopropyl-8-((2R,3S)-2-methyl-3-((methanesulfonyl)methyl)azetidin-1-yl)isoquinolin-3-amine]
43 nM	CC(C)c1ccc(N2C[C@H](CS(C)(=O)=O)[C@H]2C)c2cnc(Nc3ccnc(-c4cn(C(F)F)nc4Cl)n3)cc12 [Example 177, N-(2-(3-chloro-1-(difluoromethyl)-1H-pyrazol-4-yl)pyrimidin-4-yl)-5-isopropyl-8-((2R,3S)-2-methyl-3-((methanesulfonyl)methyl)azetidin-1-yl)isoquinolin-3-amine]
80 nM	CC(C)c1ccc(N2C[C@H](CS(C)(=O)=O)[C@H]2C)c2cnc(Nc3ccnc(-c4cn(C(C)CC#N)nc4Cl)n3)cc12 (stereo partly drawn) [Example 185, 3-(3-chloro-4-(4-((5-isopropyl-8-((2R,3S)-2-methyl-3-((methanesulfonyl)methyl)azetidin-1-yl)isoquinolin-3-yl)amino)pyrimidin-2-yl)-1H-pyrazol-1-yl)butyronitrile]

Target: Ba/F3 EGFR Del19/T790M/C797S cells (Homo sapiens, UniProt P00533, T790M/C797S, cells depend on it, form not given)
Experiment: Cell proliferation inhibition (Cell Titer-Glo), Ba/F3 EGFR Del19/T790M/C797S
Assay type: cell-based, mouse
Details: 72 hours, CellTiter-Glo, read-out: Ba/F3 EGFR Del19_T790M_C797S IC50
Description: as §1, §2, §3, §4

Sequence of Ba/F3 EGFR Del19/T790M/C797S cells (P00533 with tags, fused parts or gaps DEL746-750/T790M/C797S, form open): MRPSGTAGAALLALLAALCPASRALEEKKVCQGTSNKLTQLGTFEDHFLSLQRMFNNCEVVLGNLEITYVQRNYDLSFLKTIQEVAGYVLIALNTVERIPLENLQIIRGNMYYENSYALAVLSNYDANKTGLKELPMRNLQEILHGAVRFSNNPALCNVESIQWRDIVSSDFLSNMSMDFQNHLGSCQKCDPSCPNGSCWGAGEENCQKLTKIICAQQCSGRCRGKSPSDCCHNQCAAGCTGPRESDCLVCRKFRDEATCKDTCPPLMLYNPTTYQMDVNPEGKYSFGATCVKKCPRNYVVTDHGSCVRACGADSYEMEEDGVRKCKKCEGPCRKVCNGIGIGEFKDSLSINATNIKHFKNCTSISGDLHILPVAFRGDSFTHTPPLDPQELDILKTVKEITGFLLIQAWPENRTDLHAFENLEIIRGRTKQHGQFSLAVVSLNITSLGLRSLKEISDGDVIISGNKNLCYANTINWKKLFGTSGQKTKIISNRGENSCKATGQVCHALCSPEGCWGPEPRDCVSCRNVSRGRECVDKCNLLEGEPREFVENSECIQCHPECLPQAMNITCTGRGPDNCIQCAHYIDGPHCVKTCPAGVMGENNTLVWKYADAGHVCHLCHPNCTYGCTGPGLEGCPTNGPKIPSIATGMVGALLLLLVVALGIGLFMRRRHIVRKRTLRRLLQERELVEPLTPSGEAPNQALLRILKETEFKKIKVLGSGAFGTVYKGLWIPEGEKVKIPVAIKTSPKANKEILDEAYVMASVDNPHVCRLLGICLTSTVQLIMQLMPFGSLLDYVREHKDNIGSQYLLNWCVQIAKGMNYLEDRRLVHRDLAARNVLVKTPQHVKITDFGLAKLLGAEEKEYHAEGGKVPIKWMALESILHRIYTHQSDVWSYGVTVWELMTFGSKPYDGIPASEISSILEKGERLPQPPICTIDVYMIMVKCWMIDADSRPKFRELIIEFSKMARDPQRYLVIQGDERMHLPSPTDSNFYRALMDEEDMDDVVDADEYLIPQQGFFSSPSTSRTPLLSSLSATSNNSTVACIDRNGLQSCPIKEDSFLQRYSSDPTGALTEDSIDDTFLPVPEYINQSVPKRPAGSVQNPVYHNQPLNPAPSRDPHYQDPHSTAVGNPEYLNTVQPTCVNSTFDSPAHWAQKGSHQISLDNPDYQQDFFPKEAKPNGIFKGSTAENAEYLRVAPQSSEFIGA

Structure (SMILES)	GI50
[2H]C([2H])([2H])n1cc(-c2nccc(Nc3cc4c(C(C)C)ccc(N5C[C@H](CS(C)(=O)=O)[C@H]5C)c4cn3)n2)c(C)n1 [Example 2, 5-isopropyl-N-(2-(3-methyl-1-(methyl-d3)-1H-pyrazol-4-yl)pyrimidin-4-yl)-8-((2R,3S)-2-methyl-3-((methylsulfonyl)methyl)azetidin-1-yl)isoquinolin-3-amine]	6.2 nM
[2H]C([2H])([2H])c1nn(C([2H])([2H])[2H])cc1-c1nccc(Nc2cc3c(C(C)C)ccc(N4C[C@H](CS(C)(=O)=O)[C@H]4C)c3cn2)n1 [Example 4, N-(2-(1,3-bis(methyl-d3)-1H-pyrazol-4-yl)pyrimidin-4-yl)-5-isopropyl-8-((2R,3S)-2-methyl-3-((methylsulfonyl)methyl)azabut-1-yl)isoquinolin-3-amine]	7.7 nM
